For the assay, the system named is Candida albicans (clinically isolated strain). As to the kind of experiment: Activity against Candida albicans infection in mice (survival days). Format: in vivo. To be noted: Mice infected with Candida albicans, tail vein injection; summary of Table 1. The procedure: Activity against Candia albicans: Male CRJ:ICR mice (5 week age, 10 mice per group) were used. The fat emulsion obtained in Example 1; an injection solution (HCO 60 preparation) wherein the compound [I] was dissolved in a concentration of 2 % (w/v) in an aqueous solution of 10 % (w/v) of polyoxyethylene hydrogenated castor oil and 5 % (w/v) of glucose; and a solvent for the HCO 60 preparation (i.e. an aqueous solution of 10 % (w/v) of polyoxyethylene hydrogenated castor oil and 5 % (w/v) of glucose (as a control) The test mice was infected with Candida albicans (clinically isolated strain) by injecting the microorganism in an amount of 5 x 10^6 cells/mouse through the tail vein. One hour after the infection, the test injection products were each injected through the tail vein, and the survival days of mice were measured. The evaluation of effect was calculated by the following formula: Average survival days in each test group T/C = x 100 Average survival days in control group

As to `CCC(C)C(=Cn1ccnc1)c1ccc(Cl)cc1Cl` (stereo not shown) [compound [I], 1-[2-(2,4-dichlorophenyl)-3-methyl-1-pentenyl]-1H-imidazole], the “effect against the infection (in words)” value is “remarkedly excellent effect against the infection”.

Source of the values: EP0257454A1, “Oil-in-water type fat emulsion of 1-[2-(2,4-dichlorophenyl)-3-methyl-1-pentenyl]-1H-imidazole” (MORISHITA PHARMACEUTICAL CO. LTD., priority 1986, dated 1988).
